Measurements published in patent US20020137929A1, “1 - (3-heterocyclylphenyl) isothiourea, -isourea, -guanidine and -amidine herbicidal agents” (Intellectual Property Department, BASF Aktiengesellschaft, priority 1998, published 2002).

Key:
MOOVA (Monochoria) = assay: Postemergence weed control under flooded paddy conditions; type: in vivo, Monochoria vaginalis; settings: postemergence weeds
Method in brief: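 Flood-water application, about 0.0313–0.500 kg/ha a.i. in aqueous/acetone 50/50 v/v; water depth 1.5–3 cm throughout. Weeds 3–5 cm, rice 1.5–2.5 leaf. Greenhouse; 0–9 visual rating vs control at 3–4 wk.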

ECHCG (Barnyardgrass) = assay: Preemergence herbicidal evaluation; type: in vivo, Echinochloa crus-galli; settings: rated 4-5 weeks after treatment; for ECHCG rating: preemergence, 0-9 scale
Method in brief: (§1)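 Scores use a 0–9 visual scale covering stand, vigor, malformation, size and chlorosis relative to controls, rated four to five weeks after treatment. Before emergence, soil-planted seeds were sprayed with compound in aqueous acetone at roughly 0.0156–0.500 kg/ha and held in the greenhouse.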

[1] = tested on: CHEAL (Lambsquarters, Common); assay: Postemergence herbicidal evaluation; type: in vivo, Chenopodium album; settings: for Herbicidal rating CHEAL / CHEAL herbicidal rating: postemergence
Method in brief: (§2)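 Herbicidal effect was judged by eye on a 0–9 scale covering stand, vigor, deformity, size and chlorosis, compared with controls, four to five weeks after seedlings about two weeks old were sprayed (40 psi, ~0.0156–0.500 kg/ha).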

[2] = tested on: IPOHE (Morningglory, Ivyleaf); assay: Postemergence herbicidal evaluation; type: in vivo, Ipomoea hederacea; settings: for Herbicidal rating IPOHE / IPOHE herbicidal rating: postemergence
Method in brief: as §2

GALAP (Galium) = assay: Preemergence herbicidal evaluation; type: in vivo, Galium aparine; settings: rated 4-5 weeks after treatment; for GALAP rating: preemergence, 0-9 scale
Method in brief: as §1

[3] = tested on: GLXMAW (Soybean, Williams); assay: Preemergence herbicidal evaluation; type: in vivo, Glycine max, (L.) Merr. cv Williams; settings: rated 4-5 weeks after treatment; for GLXMAW rating: preemergence, 0-9 scale
Method in brief: as §1

[4] = Rate 0.0313 kg/ha, rated 3 to 4 weeks after treatment
[5] = Rate 0.0625 kg/ha, rated 3 to 4 weeks after treatment
[6] = Rate 0.1250 kg/ha, rated 3 to 4 weeks after treatment
[7] = Rate 0.2500 kg/ha, rated 3 to 4 weeks after treatment

## C=CCN1C(=O)C(CC(=O)OC)SC1=Nc1cc(-n2c(=O)cc(C(F)(F)F)n(C)c2=O)c(F)cc1Cl (centres unmarked) [Compound 64, Methyl 3-allyl-2-{{2-chloro-5-[3,6-dihydro-3-methyl-2,6-dioxo-4-(trifluoromethyl)-1(2H)-pyrimidinyl]-4-fluorophenyl}imino}-4-oxo-5-thiazolidineacetate]
MOOVA (Monochoria); [4]
  Herbicidal rating MOOVA: 7.0
MOOVA (Monochoria); [5]
  Herbicidal rating MOOVA: 9.0
MOOVA (Monochoria); [6]
  Herbicidal rating MOOVA: 9.0
MOOVA (Monochoria); [7]
  Herbicidal rating MOOVA: 9.0
ECHCG (Barnyardgrass); rate 0.0156 kg/ha
  Preemergence herbicidal rating ECHCG: 0.0
ECHCG (Barnyardgrass); rate 0.0313 kg/ha
  Preemergence herbicidal rating ECHCG: 0.0
ECHCG (Barnyardgrass); rate 0.0625 kg/ha
  Preemergence herbicidal rating ECHCG: 1.0
ECHCG (Barnyardgrass); rate 0.1250 kg/ha
  Preemergence herbicidal rating ECHCG: 3.0
ECHCG (Barnyardgrass); rate 0.2500 kg/ha
  Preemergence herbicidal rating ECHCG: 6.0
[1]; Rate 0.0158 kg/ha
  Postemergence herbicidal rating CHEAL: 9.0
[1]; Rate 0.0315 kg/ha
  Postemergence herbicidal rating CHEAL: 9.0
[1]; Rate 0.0630 kg/ha
  Postemergence herbicidal rating CHEAL: 9.0
[2]; Rate 0.0158 kg/ha
  Postemergence herbicidal rating IPOHE: 9.0
[2]; Rate 0.0315 kg/ha
  Postemergence herbicidal rating IPOHE: 9.0
[2]; Rate 0.0630 kg/ha
  Postemergence herbicidal rating IPOHE: 9.0
GALAP (Galium); rate 0.0156 kg/ha
  Preemergence herbicidal rating GALAP: 0.0
GALAP (Galium); rate 0.0313 kg/ha
  Preemergence herbicidal rating GALAP: 0.0
GALAP (Galium); rate 0.0625 kg/ha
  Preemergence herbicidal rating GALAP: 1.0
GALAP (Galium); rate 0.2500 kg/ha
  Preemergence herbicidal rating GALAP: 7.0
[3]; rate 0.0156 kg/ha
  Preemergence herbicidal rating GLXMAW: 0.0
[3]; rate 0.0313 kg/ha
  Preemergence herbicidal rating GLXMAW: 0.0
[3]; rate 0.0625 kg/ha
  Preemergence herbicidal rating GLXMAW: 2.0
[3]; rate 0.1250 kg/ha
  Preemergence herbicidal rating GLXMAW: 3.0
[3]; rate 0.2500 kg/ha
  Preemergence herbicidal rating GLXMAW: 5.0

## C=CCN1C(=O)C(CC(=O)NS(=O)(=O)CC)SC1=Nc1cc(-n2c(=O)cc(C(F)(F)F)n(C)c2=O)c(F)cc1Cl (centres unmarked) [Compound 104, 3-Allyl-2-{{2-chloro-5-[3,6-dihydro-3-methyl-2,6-dioxo-4-(trifluoromethyl)-1(2H)-pyrimidinyl]-4-fluorophenyl}imino}-N-(ethylsulfonyl)-4-oxo-5-thiazolidineacetamide]
MOOVA (Monochoria); [4]
  Herbicidal rating MOOVA: 7.0
MOOVA (Monochoria); [5]
  Herbicidal rating MOOVA: 9.0
MOOVA (Monochoria); [6]
  Herbicidal rating MOOVA: 9.0
MOOVA (Monochoria); [7]
  Herbicidal rating MOOVA: 9.0
ECHCG (Barnyardgrass); 0.0625 kg/ha
  ECHCG rating: 0.0
ECHCG (Barnyardgrass); 0.1250 kg/ha
  ECHCG rating: 0.0
ECHCG (Barnyardgrass); 0.2500 kg/ha
  ECHCG rating: 1.0
ECHCG (Barnyardgrass); 0.5000 kg/ha
  ECHCG rating: 1.0
[1]; rate 0.0156 kg/ha
  Herbicidal rating CHEAL: 0.0
[1]; rate 0.0313 kg/ha
  Herbicidal rating CHEAL: 2.0
[1]; rate 0.0625 kg/ha
  Herbicidal rating CHEAL: 4.0
[1]; rate 0.1250 kg/ha
  Herbicidal rating CHEAL: 5.0
[2]; rate 0.0156 kg/ha
  Herbicidal rating IPOHE: 9.0
[2]; rate 0.0313 kg/ha
  Herbicidal rating IPOHE: 9.0
[2]; rate 0.0625 kg/ha
  Herbicidal rating IPOHE: 9.0
[2]; rate 0.1250 kg/ha
  Herbicidal rating IPOHE: 9.0
GALAP (Galium); 0.0625 kg/ha
  GALAP rating: 0.0
GALAP (Galium); 0.1250 kg/ha
  GALAP rating: 0.0
GALAP (Galium); 0.2500 kg/ha
  GALAP rating: 0.0
GALAP (Galium); 0.5000 kg/ha
  GALAP rating: 6.0
[3]; 0.0625 kg/ha
  GLXMAW rating: 0.0
[3]; 0.1250 kg/ha
  GLXMAW rating: 0.0
[3]; 0.2500 kg/ha
  GLXMAW rating: 0.0
[3]; 0.5000 kg/ha
  GLXMAW rating: 3.0

## CCOC(=O)CN1C(=O)CO/C1=N/c1cc(-n2c(=O)cc(C(F)(F)F)n(C)c2=O)c(F)cc1Cl [Compound 22, Ethyl 2-{{2-chloro-5-[3,6-dihydro-3-methyl-2,6-dioxo-4-(trifluoromethyl)-1(2H)-pyrimidinyl]-4-fluorophenyl}imino}-4-oxo-3-oxazolidineacetate]
MOOVA (Monochoria); rate 0.1160 kg/ha, 3-4 weeks after treatment
  Herbicidal rating MOOVA: 9.0
MOOVA (Monochoria); rate 0.2310 kg/ha, 3-4 weeks after treatment
  Herbicidal rating MOOVA: 9.0
MOOVA (Monochoria); rate 0.4630 kg/ha, 3-4 weeks after treatment
  Herbicidal rating MOOVA: 9.0
ECHCG (Barnyardgrass); rate 0.0156 kg/ha
  ECHCG preemergence herbicidal rating: 0.0
ECHCG (Barnyardgrass); rate 0.0313 kg/ha
  ECHCG preemergence herbicidal rating: 0.0
ECHCG (Barnyardgrass); rate 0.0625 kg/ha
  ECHCG preemergence herbicidal rating: 0.0
ECHCG (Barnyardgrass); rate 0.1250 kg/ha
  ECHCG preemergence herbicidal rating: 3.0
ECHCG (Barnyardgrass); rate 0.2500 kg/ha
  ECHCG preemergence herbicidal rating: 9.0
[1]; rate 0.0158 kg/ha
  CHEAL herbicidal rating: 4.0
[1]; rate 0.0315 kg/ha
  CHEAL herbicidal rating: 6.0
[1]; rate 0.0630 kg/ha
  CHEAL herbicidal rating: 3.0
[2]; rate 0.0158 kg/ha
  IPOHE herbicidal rating: 9.0
[2]; rate 0.0315 kg/ha
  IPOHE herbicidal rating: 9.0
[2]; rate 0.0630 kg/ha
  IPOHE herbicidal rating: 9.0
GALAP (Galium); rate 0.0156 kg/ha
  GALAP preemergence herbicidal rating: 0.0
GALAP (Galium); rate 0.0313 kg/ha
  GALAP preemergence herbicidal rating: 0.0
GALAP (Galium); rate 0.0625 kg/ha
  GALAP preemergence herbicidal rating: 0.0
GALAP (Galium); rate 0.1250 kg/ha
  GALAP preemergence herbicidal rating: 0.0
GALAP (Galium); rate 0.2500 kg/ha
  GALAP preemergence herbicidal rating: 9.0
[3]; rate 0.0156 kg/ha
  GLXMAW preemergence herbicidal rating: 0.0
[3]; rate 0.0313 kg/ha
  GLXMAW preemergence herbicidal rating: 0.0
[3]; rate 0.0625 kg/ha
  GLXMAW preemergence herbicidal rating: 3.0
[3]; rate 0.1250 kg/ha
  GLXMAW preemergence herbicidal rating: 7.0
[3]; rate 0.2500 kg/ha
  GLXMAW preemergence herbicidal rating: 9.0

## CC(C)S(=O)(=O)NC(=O)CC1SC(=Nc2cc(-n3c(=O)cc(C(F)(F)F)n(C)c3=O)c(F)cc2Cl)N(C)C1=O (centres unmarked) [Compound 119, 2-{{2-Chloro-5-[3,6-dihydro-3-methyl-2,6-dioxo-4-(trifluoromethyl)-1(2H)-pyrimidinyl]-4-fluorophenyl}imino}-N-(isopropylsulfonyl)-3-methyl-4-oxo-5-thiazolidineacetamide]
MOOVA (Monochoria); [4]
  Herbicidal rating MOOVA: 4.0
MOOVA (Monochoria); [5]
  Herbicidal rating MOOVA: 7.0
MOOVA (Monochoria); [6]
  Herbicidal rating MOOVA: 8.0
MOOVA (Monochoria); [7]
  Herbicidal rating MOOVA: 9.0
ECHCG (Barnyardgrass); rate 0.0156 kg/ha
  Preemergence herbicidal rating ECHCG: 0.0
ECHCG (Barnyardgrass); rate 0.0313 kg/ha
  Preemergence herbicidal rating ECHCG: 0.0
ECHCG (Barnyardgrass); rate 0.0625 kg/ha
  Preemergence herbicidal rating ECHCG: 0.0
ECHCG (Barnyardgrass); rate 0.1250 kg/ha
  Preemergence herbicidal rating ECHCG: 2.0
ECHCG (Barnyardgrass); rate 0.2500 kg/ha
  Preemergence herbicidal rating ECHCG: 2.0
[1]; rate 0.0156 kg/ha
  Herbicidal rating CHEAL: 9.0
[1]; rate 0.0313 kg/ha
  Herbicidal rating CHEAL: 9.0
[1]; rate 0.0625 kg/ha
  Herbicidal rating CHEAL: 9.0
[2]; rate 0.0156 kg/ha
  Herbicidal rating IPOHE: 9.0
[2]; rate 0.0313 kg/ha
  Herbicidal rating IPOHE: 9.0
[2]; rate 0.0625 kg/ha
  Herbicidal rating IPOHE: 9.0
GALAP (Galium); rate 0.0156 kg/ha
  Preemergence herbicidal rating GALAP: 0.0
GALAP (Galium); rate 0.0313 kg/ha
  Preemergence herbicidal rating GALAP: 0.0
GALAP (Galium); rate 0.0625 kg/ha
  Preemergence herbicidal rating GALAP: 0.0
GALAP (Galium); rate 0.1250 kg/ha
  Preemergence herbicidal rating GALAP: 0.0
GALAP (Galium); rate 0.2500 kg/ha
  Preemergence herbicidal rating GALAP: 4.0
[3]; rate 0.0156 kg/ha
  Preemergence herbicidal rating GLXMAW: 0.0
[3]; rate 0.0313 kg/ha
  Preemergence herbicidal rating GLXMAW: 0.0
[3]; rate 0.0625 kg/ha
  Preemergence herbicidal rating GLXMAW: 0.0
[3]; rate 0.1250 kg/ha
  Preemergence herbicidal rating GLXMAW: 1.0
[3]; rate 0.2500 kg/ha
  Preemergence herbicidal rating GLXMAW: 2.0

## Cn1c(C(F)(F)F)cc(=O)n(-c2cc(N=C3SCC(=O)N3CC(=O)OC(C)(C)C)c(Cl)cc2F)c1=O [Compound 43, tert-Butyl 2-{{2-chloro-5-[3,6-dihydro-3-methyl-2,6-dioxo-4-(trifluoromethyl)-1(2H)-pyrimidinyl]-4-fluorophenyl}imino}-4-oxo-3-thiazolidineacetate]
MOOVA (Monochoria); rate 0.0313 kg/ha, 3-4 weeks after treatment
  Herbicidal rating MOOVA: 9.0
MOOVA (Monochoria); rate 0.0825 kg/ha, 3-4 weeks after treatment
  Herbicidal rating MOOVA: 9.0
MOOVA (Monochoria); rate 0.1250 kg/ha, 3-4 weeks after treatment
  Herbicidal rating MOOVA: 9.0
MOOVA (Monochoria); rate 0.2500 kg/ha, 3-4 weeks after treatment
  Herbicidal rating MOOVA: 9.0
ECHCG (Barnyardgrass); rate 0.0156 kg/ha
  Preemergence herbicidal rating ECHCG: 0.0
ECHCG (Barnyardgrass); rate 0.0313 kg/ha
  Preemergence herbicidal rating ECHCG: 0.0
ECHCG (Barnyardgrass); rate 0.0625 kg/ha
  Preemergence herbicidal rating ECHCG: 0.0
ECHCG (Barnyardgrass); rate 0.1250 kg/ha
  Preemergence herbicidal rating ECHCG: 0.0
ECHCG (Barnyardgrass); rate 0.2500 kg/ha
  Preemergence herbicidal rating ECHCG: 5.0
[1]; Rate 0.0158 kg/ha
  Postemergence herbicidal rating CHEAL: 5.0
[1]; Rate 0.0315 kg/ha
  Postemergence herbicidal rating CHEAL: 9.0
[1]; Rate 0.0630 kg/ha
  Postemergence herbicidal rating CHEAL: 9.0
[2]; Rate 0.0158 kg/ha
  Postemergence herbicidal rating IPOHE: 9.0
[2]; Rate 0.0315 kg/ha
  Postemergence herbicidal rating IPOHE: 9.0
[2]; Rate 0.0630 kg/ha
  Postemergence herbicidal rating IPOHE: 9.0
GALAP (Galium); rate 0.0156 kg/ha
  Preemergence herbicidal rating GALAP: 0.0
GALAP (Galium); rate 0.0313 kg/ha
  Preemergence herbicidal rating GALAP: 0.0
GALAP (Galium); rate 0.0625 kg/ha
  Preemergence herbicidal rating GALAP: 0.0
GALAP (Galium); rate 0.1250 kg/ha
  Preemergence herbicidal rating GALAP: 9.0
GALAP (Galium); rate 0.2500 kg/ha
  Preemergence herbicidal rating GALAP: 9.0
[3]; rate 0.0156 kg/ha
  Preemergence herbicidal rating GLXMAW: 0.0
[3]; rate 0.0313 kg/ha
  Preemergence herbicidal rating GLXMAW: 0.0
[3]; rate 0.0625 kg/ha
  Preemergence herbicidal rating GLXMAW: 0.0
[3]; rate 0.1250 kg/ha
  Preemergence herbicidal rating GLXMAW: 0.0
[3]; rate 0.2500 kg/ha
  Preemergence herbicidal rating GLXMAW: 2.0
